Experimental data taken from the supplement of paper PMC4862054.

Tests used:
Conditions in all cases: incubation time: 72 h
BT-474 [1] = assay: normalised response (% of control), CellTox Green; higher = less cell death (100 = DMSO, 0 = benzethonium chloride kill control)
Procedure, shortened: (§1)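 Every value is a normalised signal taken at one concentration of a dilution series. Compound was placed in 384-well plates at 5 concentrations in 10-fold steps over a compound-specific 10,000-fold range, and 20 µl of breast cancer cell suspension was seeded onto it. After 72 h, CellTox Green fluorescence (485/520 nm) was measured first and CellTiter-Glo luminescence second, following 10 min at room temperature. Each plate was scaled to 0.1 % DMSO (100) and a positive kill control (0).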

BT-549 [2] = assay: as above
Procedure, shortened: as §1

CAL-120 [3] = assay: as above
Procedure, shortened: as §1

CAL-148 [4] = assay: as above
Procedure, shortened: as §1

CAL-51 [5] = assay: as above
Procedure, shortened: as §1

CAL-85-1 [6] = assay: as above
Procedure, shortened: as §1

DU-4475 [7] = assay: as above
Procedure, shortened: as §1

HCC1143 [8] = assay: as above
Procedure, shortened: as §1

HCC1599 [9] = assay: as above
Procedure, shortened: as §1

HCC1937 [10] = assay: as above
Procedure, shortened: as §1

HDQ-P1 [11] = assay: as above
Procedure, shortened: as §1

Hs578T [12] = assay: as above
Procedure, shortened: as §1

MCF-10A [13] = assay: as above
Procedure, shortened: as §1

MDA-MB-231 [14] = assay: as above
Procedure, shortened: as §1

MDA-MB-436 [15] = assay: as above
Procedure, shortened: as §1

MDA-MB-453 [16] = assay: as above
Procedure, shortened: as §1

MDA-MB-468 [17] = assay: as above
Procedure, shortened: as §1

MFM-223 [18] = assay: as above
Procedure, shortened: as §1

BT-474 [19] = assay: normalised response (% of control), CellTiter-Glo; higher = more viable cells (100 = DMSO, 0 = benzethonium chloride kill control)
Procedure, shortened: as §1

BT-549 [20] = assay: as above
Procedure, shortened: as §1

CAL-120 [21] = assay: as above
Procedure, shortened: as §1

CAL-148 [22] = assay: as above
Procedure, shortened: as §1

CAL-51 [23] = assay: as above
Procedure, shortened: as §1

CAL-85-1 [24] = assay: as above
Procedure, shortened: as §1

DU-4475 [25] = assay: as above
Procedure, shortened: as §1

HCC1143 [26] = assay: as above
Procedure, shortened: as §1

HCC1599 [27] = assay: as above
Procedure, shortened: as §1

HCC1937 [28] = assay: as above
Procedure, shortened: as §1

HDQ-P1 [29] = assay: as above
Procedure, shortened: as §1

Hs578T [30] = assay: as above
Procedure, shortened: as §1

MCF-10A [31] = assay: as above
Procedure, shortened: as §1

MDA-MB-231 [32] = assay: as above
Procedure, shortened: as §1

MDA-MB-436 [33] = assay: as above
Procedure, shortened: as §1

MDA-MB-453 [34] = assay: as above
Procedure, shortened: as §1

MDA-MB-468 [35] = assay: as above
Procedure, shortened: as §1

MFM-223 [36] = assay: as above
Procedure, shortened: as §1

SK-BR-3 = assay: as above
Procedure, shortened: as §1

Row | Compound | normalised response (BT-474 [1]) [%] | normalised response (BT-549 [2]) [%] | normalised response (CAL-120 [3]) [%] | normalised response (CAL-148 [4]) [%] | normalised response (CAL-51 [5]) [%] | normalised response (CAL-85-1 [6]) [%] | normalised response (DU-4475 [7]) [%] | normalised response (HCC1143 [8]) [%] | normalised response (HCC1599 [9]) [%] | normalised response (HCC1937 [10]) [%] | normalised response (HDQ-P1 [11]) [%] | normalised response (Hs578T [12]) [%] | normalised response (MCF-10A [13]) [%] | normalised response (MDA-MB-231 [14]) [%] | normalised response (MDA-MB-436 [15]) [%] | normalised response (MDA-MB-453 [16]) [%] | normalised response (MDA-MB-468 [17]) [%] | normalised response (MFM-223 [18]) [%] | normalised response (BT-474 [19]) [%] | normalised response (BT-549 [20]) [%] | normalised response (CAL-120 [21]) [%] | normalised response (CAL-148 [22]) [%] | normalised response (CAL-51 [23]) [%] | normalised response (CAL-85-1 [24]) [%] | normalised response (DU-4475 [25]) [%] | normalised response (HCC1143 [26]) [%] | normalised response (HCC1599 [27]) [%] | normalised response (HCC1937 [28]) [%] | normalised response (HDQ-P1 [29]) [%] | normalised response (Hs578T [30]) [%] | normalised response (MCF-10A [31]) [%] | normalised response (MDA-MB-231 [32]) [%] | normalised response (MDA-MB-436 [33]) [%] | normalised response (MDA-MB-453 [34]) [%] | normalised response (MDA-MB-468 [35]) [%] | normalised response (MFM-223 [36]) [%] | normalised response (SK-BR-3) [%]
1 | CC(C)(C#N)c1cc(Cn2cncn2)cc(C(C)(C)C#N)c1 [Anastrozole] (1000 nM) | 99.8 | 106 | 101 | 93.9 | 113 | 110 | 100 | 61.9 | 102 | 106 | 111 | 62.7 | 105 | 104 | 103 | 96.5 | 85.1 | 101 | 104 | 99.2 | 96.7 | 93.3 | 122 | 103 | 98.2 | 101 | 123 | 94.5 | 96.5 | 103 | 105 | 106 | 100 | 96.9 | 106 | 105 | 108
2 | C/C(=C\c1csc(C)n1)[C@@H]1C[C@@H]2O[C@]2(C)CCC[C@H](C)[C@H](O)[C@@H](C)C(=O)C(C)(C)[C@@H](O)CC(=O)O1 [Patupilone] (100 nM) | 58.5 | 90.3 | 77.9 | 50.5 | 36.3 | 38.6 | 94.5 | 103 | 95.6 | 81.2 | 71.9 | 96.1 | 77.1 | 65.7 | 40.1 | 93.6 | -2.53 | 84.1 | 75.1 | 16.3 | 71.4 | 37.4 | 24.4 | 25.8 | 72.4 | 42.8 | 102 | 75.9 | 74.6 | 39.6 | 61.4 | 73 | 35.4 | 71.8 | 26.2 | 86.8 | 17.4
3 | COc1ccccc1S(=O)(=O)Nc1ccc2c(c1)CN(C)C(=O)N2 [PFI-1] (1000 nM) | 98.7 | 111 | 111 | 103 | 116 | 121 | 107 | 95 | 110 | 91.9 | 109 | 98.2 | 105 | 105 | 115 | 121 | 140 | 87.8 | 89.8 | 76.9 | 91.3 | 107 | 87.7 | 87 | 97.7 | 94.1 | 86.7 | 90.9 | 91.9 | 85 | 98.6 | 89.2 | 93.9 | 91.1 | 95 | 97.8 | 103
